Post-reconstitution stability data for 1 compound are collected here from US10328164B2, “Radiopharmaceutical products” (GE HEALTHCARE LIMITED, priority 2006, dated 2019).

Structures are written as SMILES.

The conditions of the data set: tetrofosmin kit with ascorbic acid radioprotectant, without air addition step; post preparation. From the text:
The tetrofosmin kit may optionally comprise a radioprotectant, as defined above. […] Med. Comm., 21, 845-849 (2000)] and the Myoview™ Package Instructions.

As to `CCOCC[PH+](CCOCC)CC[PH+](CCOCC)CCOCC.CCOCC[PH+](CCOCC)CC[PH+](CCOCC)CCOCC.[O]=[99Tc]=[O]` [^99mTc-tetrofosmin, ^99mTc(O)2(tetrofosmin)2^+], the post-reconstitution stability entry was “up to 12 hours”.
